From patent publication US11439618B2, “Compositions and methods for lowering triglycerides” (Amarin Pharmaceuticals Ireland Limited, priority 2009, dated 2022)

Tested on: subjects with Age-Associated Memory Impairment
Experiment: CDR computerized cognitive test battery, 6-week study in Age-Associated Memory Impairment
Type: in vivo, human
Details: for Quality of Episodic Secondary Memory, LS mean difference vs placebo: overall; for Self-Rated Contentment, ANCOVA: p<0.001
Protocol: A single-center, 6-week, double-blind, randomizes, parallel-group, placebo-controlled, dose-ranging pilot study was performed to evaluate the efficacy, tolerability, and safety of >96% ethyl-EPA in subjects with subjective and objective memory impairment according to generally accepted criteria for Age-Associated Memory Impairment (“AAMI”). The primary objective of the study was to determine the effect of >96% ethyl-EPA 1 g, 2 g, and 4 g daily, compared to placebo, on cognitive performance in subjects with AAMI.
The population for this study was men and women between ages 50 and 70 with self-reported complaints of memory loss, subjective and objective cognitive impairment with a score of at least one standard deviation below that of the mean for age-matched elderly population as determined by the total score of between 13 and 20 from the Paired Associated Learning (“PAL”) subset of the Wechsler Memory Scale, evidence of adequate intellectual function as determined by a scaled score of at least 9 (raw score of at least 32) on the Vocabulary subtest of the Wechsler Adult Intelligence Scale and absence of dementia as determined by a score of 24 or higher on the Mini-Mental State Examination (“MMSE”).
Ninety-four subjects were randomized into one of six groups: 1 g E-EPA daily (n=23), 2 g E-EPA daily (n=24), 4 g E-EPA daily (n=24), 1 g placebo daily (n=7), 2 g placebo daily (n=8), and 4 g placebo daily (n=8). E-EPA was provided as 500 mg soft gel capsules containing >96% E-EPA and 0.2% dl-α-tocopherol as an antioxidant. Placebo capsules contained 467 mg of liquid paraffin and 0.2% dl-a-tocopherol. Ninety-one subjects completed the study. Two subjects in the 2 g E-EPA group and one subject in the 2 g placebo group discontinued the study.
The study consisted of a screening visit, a training visit, and four study visits. At the screening visit, subjects' eligibility was determined through cognitive tests (verbal paired associated learning [PAL] subscale, vocabulary subtest, Memory Assessment Clinics Questionnaire [MAC-Q], mini mental state evaluation [MMSE] and MINI [mini international neuropsychiatric interview; sections 1 and 2 of Diagnostic and Statistical Manual of Mental Disorders, 4th Edition (DSM-IV) plus dysthymia]), haematology, clinical chemistry and 12-lead electrocardiogram (ECG). At the training visit, subjects were shown how to use the CDR computerized system. Subjects took study drug for 6 weeks and on Days 0, 14, 28 and 42, subjects underwent the CDR cognitive test battery.
A selection of tasks from the CDR computerized cognitive assessment system were administered at Visit 2 (training visit), Visit 3 (baseline), Visit 4 (Day 14), Visit 5 (Day 28) and Visit 6 (Day 42). Parallel forms of the tests were presented at each testing session. All tasks were computer-controlled, the information presented on high resolution monitors, and the responses recorded via a response model containing two buttons: one marked ‘no’ and the other ‘yes’. Five CDR composite scores were used as the primary/secondary outcome variables. The task titles were: • Word Presentation • Immediate Word Recall • Picture Presentation • Simple Reaction Time • Digit Vigilance • Choice Reaction Time • Spatial Working Memory • Numeric Working Memory • Delayed Word Recall • Word Recognition • Picture Recognition • Bond-Lader Visual Analogue Scales of Mood and Alertness • Screen, Using the Computer Mouse
Summary statistics were provided for the ITT and Study Per Protocol Populations separately for all composite scores, major and supportive variables. Summary statistics were performed for both the unadjusted and difference from baseline data (i.e. the difference from the time matched predose assessments on Day 0). Summary statistics were calculated by treatment, day and time-point. The summary statistics comprised n, mean, median, SD, standard error of mean (“SEM”), minimum and maximum values. […]

CC/C=C\C/C=C\C/C=C\C/C=C\C/C=C\CCCC(=O)OCC [Ethyl-EPA, all-cis eicosa-5,8,11,14,17-pentaenoic acid ethyl ester]
Continuity of Attention and Digit Vigilance Targets Detected, effect of treatment (ITT): no statistically significant effect of treatment
Immediate and Delayed Word Recall Accuracies, Word and Picture Recognition Sensitivity Indices, effect of treatment (ITT): no statistically significant effects of treatment
Quality of Episodic Secondary Memory, effect of treatment (ITT): no statistically significant effect of treatment
Self-Rated Alertness, effect of treatment (ITT): no statistically significant effect of treatment
Self-Rated Calmness, effect of treatment (ITT): no statistically significant effect of treatment
Self-Rated Contentment, LS mean difference to placebo (ITT): no statistically significant effects
Simple Reaction Time and Digit Vigilance Speed, effect of treatment (ITT): no statistically significant effects of treatment
Speed of Memory and subtasks Spatial and Numeric Working Memory Speeds, Word and Picture Recognition Speeds, effect of treatment (ITT): no statistically significant effects of treatment
Power of Attention, effect of treatment (ITT, 1, 2, 4 g daily vs placebo, ANCOVA): no statistically significant effect of treatment
Immediate Word Recall Accuracy, LS mean difference vs placebo (ITT, 1 g, Day 14, p=0.028): statistically significant decreases
Picture Recognition Speed, difference vs placebo (ITT, 1 g, Day 14 at AM 2, p=0.084): trends for benefits
Immediate Word Recall Accuracy, LS mean difference vs placebo (ITT, 1 g, Day 14 at PM 2, p=0.020): statistically significant decreases
Word Recognition Sensitivity Index, LS mean difference vs placebo (ITT, 1 g, Day 28, p=0.024): statistically significant decreases
Picture Recognition Speed, difference vs placebo (ITT, 1 g, Day 28 at AM 1, p=0.085): trends for benefits
Picture Recognition Sensitivity Index, LS mean difference vs placebo (ITT, 1 g, Day 28 at AM 2, p=0.017): statistically significant decrease
Picture Recognition Sensitivity Index, LS mean difference vs placebo (ITT, 1 g, Day 28 at PM 2, p=0.040): statistically significant decrease
Immediate Word Recall Accuracy, LS mean difference vs placebo (ITT, 1 g, at AM 1, p=0.040): statistically significant decreases
Quality of Episodic Secondary Memory, LS mean difference vs placebo (ITT, 1 g, p=0.040): statistically significant decreases
Immediate Word Recall Accuracy, LS mean difference vs placebo (ITT, 2 g, Day 28, p=0.017): statistically significant decreases
Self-Rated Alertness, LS mean difference vs placebo (ITT, 2 g, Day 28, p=0.047): statistically significant decrease in ratings
Immediate Word Recall Accuracy, LS mean difference vs placebo (ITT, 2 g, Day 28 at AM 1, p=0.006): statistically significant decreases
Self-Rated Alertness, LS mean difference vs placebo (ITT, 2 g, Day 28 at AM 2, p=0.041): statistically significant decrease in ratings
Immediate Word Recall Accuracy, LS mean difference vs placebo (ITT, 2 g, at AM 1, p=0.028): statistically significant decreases
Quality of Episodic Secondary Memory, LS mean difference vs placebo (ITT, 2 g, p=0.035): statistically significant decreases
Spatial Working Memory Speed, LS mean difference vs placebo (ITT, 4 g, Day 14 at PM 1, p=0.048): statistically significant benefit
Word Recognition Sensitivity Index, LS mean difference vs placebo (ITT, 4 g, Day 28 at PM 2, p=0.030): statistically significant decrease
Word Recognition Sensitivity Index, LS mean difference vs placebo (ITT, 4 g, Day 42, p=0.038): statistically significant decreases
Spatial Working Memory Speed, LS mean difference vs placebo (ITT, 4 g, Day 42 at AM 1, p=0.061): trend for a benefit
Word Recognition Sensitivity Index, LS mean difference vs placebo (ITT, 4 g, at PM 2, p=0.045): statistically significant decrease
Power of Attention, LS mean difference active treatment vs placebo (ITT, any time-point): no LS mean difference
Self-Rated Contentment, ANCOVA (ITT): statistically significant treatment by day interaction
Choice Reaction Time, ANCOVA (ITT, p=0.011): statistically significant treatment by day interaction
Spatial Working Memory Sensitivity Index, ANCOVA (ITT, p=0.015): statistically significant treatment by day interaction
Quality of Working Memory, ANCOVA (ITT, p=0.019): statistically significant treatment by day interaction
Numeric Working Memory Sensitivity Index, ANCOVA (ITT, p=0.089): statistical trend for a treatment by day interaction
Continuity of Attention, effect of treatment (Study Per Protocol): no statistically significant effect of treatment
Digit Vigilance Targets Detected, ANCOVA (Study Per Protocol, p=0.040): statistically significant treatment by time-point interaction
Immediate and Delayed Word Recall Accuracies, Word and Picture Recognition Sensitivity Indices, effect of treatment (Study Per-Protocol): no statistically significant effects of treatment
Power of Attention, effect of treatment (Study Per-Protocol): no statistically significant effect of treatment
Quality of Episodic Secondary Memory, effect of treatment (Study Per-Protocol): no statistically significant effects of treatment
Self-Rated Alertness, effect of treatment (Study Per-Protocol): no statistically significant effect of treatment
Self-Rated Calmness, effect of treatment (Study Per-Protocol): no statistically significant effect of treatment
Self-Rated Contentment, LS mean difference to placebo (Study Per-Protocol): no statistically significant effects
Simple Reaction Time and Digit Vigilance Speed, effect of treatment (Study Per-Protocol): no statistically significant effects of treatment
Speed of Memory and subtasks Spatial and Numeric Working Memory Speed, Word and Picture Recognition Speed, effect of treatment (Study Per-Protocol): no statistical significant effects of treatment
Immediate Word Recall Accuracy, LS mean difference to placebo (Study Per-Protocol, 1 g, Day 14, p=0.024): statistically significant decreases
Immediate Word Recall Accuracy, LS mean difference to placebo (Study Per-Protocol, 1 g, Day 14 at PM 2, p=0.019): statistically significant decreases
Word Recognition Sensitivity Index, LS mean difference to placebo (Study Per-Protocol, 1 g, Day 28, p=0.027): statistically significant decreases
Picture Recognition Sensitivity Index, LS mean difference vs placebo (Study Per-Protocol, 1 g, Day 28 at AM 2, p=0.020): statistically significant decreases
Picture Recognition Sensitivity Index, LS mean difference vs placebo (Study Per-Protocol, 1 g, Day 28 at PM 2, p=0.026): statistically significant decreases
Immediate Word Recall Accuracy, LS mean difference to placebo (Study Per-Protocol, 1 g, at AM 1, p=0.038): statistically significant decreases
Immediate Word Recall Accuracy, LS mean difference to placebo (Study Per-Protocol, 1 g, at AM 2, p=0.048): statistically significant decreases
Quality of Episodic Secondary Memory, LS mean difference vs placebo (Study Per-Protocol, 1 g, p=0.043): statistically significant decreases
Immediate Word Recall Accuracy, LS mean difference to placebo (Study Per-Protocol, 2 g, Day 28, p=0.017): statistically significant decreases
Self-Rated Alertness, LS mean difference vs placebo (Study Per-Protocol, 2 g, Day 28, p=0.035): statistically significant decrease in ratings
Immediate Word Recall Accuracy, LS mean difference to placebo (Study Per-Protocol, 2 g, Day 28 at AM 1, p=0.006): statistically significant decreases
Self-Rated Alertness, LS mean difference vs placebo (Study Per-Protocol, 2 g, Day 28 at AM 2, p=0.033): statistically significant decrease in ratings
Immediate Word Recall Accuracy, LS mean difference to placebo (Study Per-Protocol, 2 g, at AM 1, p=0.029): statistically significant decreases
Quality of Episodic Secondary Memory, LS mean difference vs placebo (Study Per-Protocol, 2 g, p=0.036): statistically significant decreases
Word Recognition Sensitivity Index, LS mean difference to placebo (Study Per-Protocol, 4 g, Day 42, p=0.038): statistically significant decreases
Self-Rated Calmness, LS mean difference vs placebo (Study Per-Protocol, 4 g, Day 42 at PM 1, p=0.071): statistical trend for an increase in ratings
Power of Attention, difference active treatment vs placebo (Study Per-Protocol, any time-point): no difference between active treatment and placebo
Self-Rated Contentment, ANCOVA (Study Per-Protocol): statistically significant treatment by day interaction
Choice Reaction Time, ANCOVA (Study Per-Protocol, p=0.013): statistically significant treatment by day interaction
Spatial Working Memory Sensitivity Index, ANCOVA (Study Per-Protocol, p=0.014): statistically significant treatment by day interaction
Quality of Working Memory, ANCOVA (Study Per-Protocol, p=0.021): statistically significant treatment by day interaction
Continuity of Attention, post-hoc vs corresponding placebo (post-hoc): no general pattern of effects
Quality of Working Memory and Numeric Working Memory Sensitivity Index, post-hoc vs corresponding placebo (post-hoc): only isolated improvements and declines in performance
Self-Rated Calmness, post-hoc vs corresponding placebo (post-hoc): no differences between active treatment and placebo
Self-rated Alertness and Self-rated Contentment, post-hoc vs corresponding placebo (post-hoc, 1 g, Days 14 and 28): decreases in ratings
Choice Reaction Time, post-hoc vs corresponding placebo (post-hoc, 4 g, Day 42): superior to placebo at every time point
Power of Attention, post-hoc vs corresponding placebo (post-hoc, 4 g, Day 42): overall benefit versus the corresponding placebo
Spatial Working Memory Sensitivity Index, post-hoc vs corresponding placebo (post-hoc, 4 g, Day 42, Study PP Population): overall benefit
Simple Reaction Time, post-hoc vs corresponding placebo (post-hoc, 4 g, PM 2 collapsed across days, several time-points Days 14 and 42): improvements in performance
Choice Reaction Time, post-hoc vs corresponding placebo (post-hoc, 4 g, all study days): overall benefit versus corresponding placebo
Quality of Episodic Secondary Memory and contributing subtasks, post-hoc vs corresponding placebo (post-hoc, explained by pre-existing group differences): a number of decreases
Speed of Memory subtask measures, post-hoc vs corresponding placebo (post-hoc, mostly 1 g): some signs of improvement in performance
